Data taken from ChEMBL document CHEMBL1155870, “Design and synthesis of novel oxazole containing 1,3-dioxane-2-carboxylic acid derivatives as PPAR alpha/gamma dual agonists” (Bioorg Med Chem, 2008).
Active and inactive are the calls of the source. No cut-off for these calls is given here.

Experiments:
Rattus norvegicus [1] = assay: Hypolipidemic activity in Zucker diabetic fa/fa rat assessed as reduction in triglyceride level at 3 mg/kg/day, po for 14 days; format: functional; parameters: scale not given: the % may be the effect or the level left
[2] = AUC (0 to infinity) in Wistar rat at 30 mg/kg, po; format: ADME, organism-based; parameters: time infinity, dose 30 mg/kg, route oral; conditions: plasma
[3] = molecular target: T1, Peroxisome proliferator-activated receptor alpha (Homo sapiens) (UniProt Q07869); assay: Agonist activity at PPARalpha expressed in human HepG2 cells at 10 uM assessed as induction of receptor transactivation by reporter gene assay relative to control; format: functional, cell-based
T1 sequence (whole entry): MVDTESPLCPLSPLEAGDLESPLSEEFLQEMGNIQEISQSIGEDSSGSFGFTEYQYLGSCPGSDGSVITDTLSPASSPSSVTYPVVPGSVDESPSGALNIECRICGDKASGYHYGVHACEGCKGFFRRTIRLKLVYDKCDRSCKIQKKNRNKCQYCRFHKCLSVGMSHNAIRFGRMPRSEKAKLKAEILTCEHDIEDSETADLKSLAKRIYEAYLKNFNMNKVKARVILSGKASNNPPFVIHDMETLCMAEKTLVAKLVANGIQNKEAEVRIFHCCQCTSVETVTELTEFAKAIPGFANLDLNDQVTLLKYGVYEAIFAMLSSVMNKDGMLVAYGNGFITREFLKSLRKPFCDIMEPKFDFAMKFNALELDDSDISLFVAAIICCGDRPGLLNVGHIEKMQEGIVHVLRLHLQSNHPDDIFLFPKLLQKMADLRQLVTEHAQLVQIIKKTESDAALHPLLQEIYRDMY

Rattus norvegicus [4] = assay: Hypolipidemic activity in Zucker diabetic fa/fa rat assessed as reduction in total cholesterol level at 3 mg/kg/day, po for 14 days; format: functional; parameters: scale not given: the % may be the effect or the level left
Mus musculus [5] = assay: Hypolipidemic activity in db/db mouse assessed as reduction in triglyceride level at 3 mg/kg/day, po for 6 days; format: functional; parameters: scale not given: the % may be the effect or the level left
[6] = molecular target: T2, Peroxisome proliferator-activated receptor alpha (Homo sapiens, UniProt Q07869); assay: Agonist activity at PPARalpha expressed in human HepG2 cells assessed as induction of receptor transactivation by reporter gene assay relative to control; format: functional, cell-based
T2 sequence (Q07869 whole entry): T1 sequence (whole entry)

Rattus norvegicus [7] = assay: Insulin sensitizing activity in Zucker diabetic fa/fa rat assessed as reduction in fasted insulin level at 3 mg/kg/day, po for 14 days; format: functional; parameters: scale not given: the % may be the effect or the level left
[8] = Cmax in Wistar rat at 30 mg/kg, po; format: ADME, organism-based; parameters: dose 30 mg/kg, route oral; conditions: in vivo
[9] = Tmax in Wistar rat at 30 mg/kg, po; format: ADME, organism-based; parameters: dose 30 mg/kg, route oral; conditions: in vivo
[10] = Half life in Wistar rat at 30 mg/kg, po; format: ADME, organism-based; parameters: dose 30 mg/kg, route oral; conditions: in vivo
Mus musculus [11] = assay: Hypoglycemic activity in db/db mouse assessed as reduction in plasma glucose level at 3 mg/kg/day, po for 6 days; format: functional; parameters: scale not given: the % may be the effect or the level left
Rattus norvegicus [12] = assay: Hypoglycemic activity in Zucker diabetic fa/fa rat assessed as improvement in glucose AUC at 3 mg/kg/day, po for 14 days; format: functional
[13] = molecular target: T3, Peroxisome proliferator-activated receptor gamma (Homo sapiens, UniProt P37231)
T3 sequence (P37231 whole entry): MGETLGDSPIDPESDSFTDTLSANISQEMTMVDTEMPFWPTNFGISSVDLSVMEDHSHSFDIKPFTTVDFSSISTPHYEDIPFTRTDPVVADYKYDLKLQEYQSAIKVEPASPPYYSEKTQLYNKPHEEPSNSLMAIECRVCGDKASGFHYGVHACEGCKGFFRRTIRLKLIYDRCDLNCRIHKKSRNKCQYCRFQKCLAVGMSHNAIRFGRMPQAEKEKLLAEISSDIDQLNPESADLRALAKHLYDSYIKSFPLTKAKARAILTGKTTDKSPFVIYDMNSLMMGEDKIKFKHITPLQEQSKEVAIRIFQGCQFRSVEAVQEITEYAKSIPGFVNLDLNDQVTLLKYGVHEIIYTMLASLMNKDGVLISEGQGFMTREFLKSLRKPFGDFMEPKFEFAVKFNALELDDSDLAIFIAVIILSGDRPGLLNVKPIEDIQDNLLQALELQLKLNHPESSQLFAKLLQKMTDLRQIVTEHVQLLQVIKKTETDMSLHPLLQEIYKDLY
Description: Agonist activity at PPARgamma expressed in human HepG2 cells assessed as induction of receptor transactivation by reporter gene assay relative to control

Mus musculus [14] = assay: Hypoglycemic activity in db/db mouse assessed as reduction in plasma glucose level at 30 mg/kg/day, po for 6 days; format: functional, organism-based; parameters: route oral; scale not given: the % may be the effect or the level left

fold change (FC) [3] | EC50 [6] [nM] | EC50 [13] [nM] | Structure (SMILES) | further results
5.8 | 4.2 | 5010 | Cc1oc(C(C)(C)C)nc1CCOc1ccc(C[C@H]2CO[C@@](C)(C(=O)O)OC2)cc1 | 
3 |  |  | Cc1oc(-c2ccccc2)nc1CCOc1ccc([C@H]2CO[C@@](C)(C(=O)O)OC2)cc1 | 
6.3 | 0.089 | 1380 | Cc1ccc(-c2nc(CCOc3ccc(C[C@H]4CO[C@@](C)(C(=O)O)OC4)cc3)c(C)o2)cc1 | 
2.3 |  |  | Cc1oc(C(C)(C)C)nc1COc1ccc(C[C@H]2CO[C@@](C)(C(=O)O)OC2)cc1 | 
6.5 | 1.09 | 96 | Cc1oc(-c2ccccc2)nc1COc1ccc(C[C@H]2CO[C@@](C)(C(=O)O)OC2)cc1 | 
1.8 |  |  | Cc1ccc(-c2nc(CCCOc3ccc(C[C@H]4CO[C@@](C)(C(=O)O)OC4)cc3)c(C)o2)cc1 | 
3 |  |  | Cc1oc(-c2ccccc2)nc1COc1ccc([C@H]2CO[C@@](C)(C(=O)O)OC2)cc1 | 

The next lines start with the compound.

Structure (SMILES) | fold change (FC) [3] | EC50 [6] [nM] | EC50 [13] [nM] | further results
Cc1ccc(-c2nc(COc3ccc(C[C@H]4CO[C@@](C)(C(=O)O)OC4)cc3)c(C)o2)cc1 | 8.2 | 0.072 | 15 | Activity (Rattus norvegicus [1]): 71%; AUC(0-inf) [2]: 351 µg·h/mL; Activity (Rattus norvegicus [4]): 30%; Activity (Mus musculus [5]): 50%; Activity (Rattus norvegicus [7]): 77%; Cmax [8]: 54 µg/mL; Tmax [9]: 1.7 h; half-life [10]: 2.7 h; Activity (Mus musculus [11]): 57%; Activity (Rattus norvegicus [12]): 51%
Cc1ccc(-c2nc(CCOc3ccc([C@H]4CO[C@@](C)(C(=O)O)OC4)cc3)c(C)o2)cc1 |  |  |  | Activity [3]: inactive
Cc1ccc(-c2nc(CCOc3ccc(C[C@H]4CO[C@@](C)(C(=O)O)OC4)cc3)c(C)o2)s1 | 6.8 | 0.03 | 239 | 
CCO[C@@H](Cc1ccc(OCCc2ccc(OS(C)(=O)=O)cc2)cc1)C(=O)O [TESAGLITAZAR] |  |  |  | Activity (Rattus norvegicus [1]): 67%; Activity (Rattus norvegicus [4]): 16%; Activity (Mus musculus [5]): 60%; Activity (Rattus norvegicus [7]): 91%; Activity (Mus musculus [11]): 54%; Activity (Rattus norvegicus [12]): 51%
Cc1ccc(-c2nc(COc3ccc([C@H]4CO[C@@](C)(C(=O)O)OC4)cc3)c(C)o2)cc1 | 2.7 |  |  | 
CN(CCOc1ccc(CC2SC(=O)NC2=O)cc1)c1ccccn1 (stereo not given) [ROSIGLITAZONE] |  |  |  | Activity (Mus musculus [14]): 54%
Cc1ccc(-c2nc(COc3ccc(C[C@H]4CO[C@@](C)(C(=O)O)OC4)cc3)c(C)o2)s1 | 5.6 | 0.6 | 19.8 | 
Cc1cccc(Nc2cc(Cl)nc(SCC(=O)O)n2)c1C | 4.4 |  |  | 
Cc1oc(-c2ccccc2)nc1CCOc1ccc(C[C@H]2CO[C@@](C)(C(=O)O)OC2)cc1 | 5.3 | 0.272 | 4100 | 
